Experimental data reported in ChEMBL document CHEMBL5724806, “Unraveling interindividual differences and functional consequences of gut microbial metabolism of immunosuppressants” (2024).

Tests used:
Assay type in all cases: ADME
[1] = The drug is tested on Roseburia intestinalis strain: DSM14610 for biotransformation under anaerobic condition. The drug concentrations were measured over 6 timepoints collected between 0 and 12 hours of incubation by liquid-chromatography-coupled mass spectrometry (LC–MS); design: dose 5 uM, timepoint 0, 1.5, 3, 6, 9, 12 hours; conditions: 5 µM
[2] = The drug is tested on the gut metagenome community of T-02 with ENA study accession number: PRJEB31790 for biotransformation under anaerobic condition. The drug concentrations were measured over 7 timepoints collected between 0 and 12 hours of incubation by liquid-chromatography-coupled mass spectrometry (LC–MS); design: dose 5 uM, timepoint 0, 0.75, 1.5, 3, 6, 9, 12 hours; conditions: 5 µM
[3] = The drug is tested on the gut metagenome community of A-05 with ENA study accession number: PRJEB31790 for biotransformation under microaerobic condition. The drug concentrations were measured over 7 timepoints collected between 0 and 12 hours of incubation by liquid-chromatography-coupled mass spectrometry (LC–MS); design: dose 5 uM, timepoint 0, 0.75, 1.5, 3, 6, 9, 12 hours; conditions: 5 µM
[4] = The drug is tested on Escherichia coli strain: DSM27469 for biotransformation under microaerobic condition. The drug concentrations were measured over 6 timepoints collected between 0 and 12 hours of incubation by liquid-chromatography-coupled mass spectrometry (LC–MS); design: dose 5 uM, timepoint 0, 1.5, 3, 6, 9, 12 hours; conditions: 5 µM
[5] = The drug is tested on Streptococcus anginosus strain: DSM20563 for biotransformation under microaerobic condition. The drug concentrations were measured over 6 timepoints collected between 0 and 12 hours of incubation by liquid-chromatography-coupled mass spectrometry (LC–MS); design: dose 5 uM, timepoint 0, 1.5, 3, 6, 9, 12 hours; conditions: 5 µM
[6] = The drug is tested on Lactobacillus paracasei strain: ATCC27092 for biotransformation under microaerobic condition. The drug concentrations were measured over 6 timepoints collected between 0 and 12 hours of incubation by liquid-chromatography-coupled mass spectrometry (LC–MS); design: dose 5 uM, timepoint 0, 1.5, 3, 6, 9, 12 hours; conditions: lacticaseibacillus paracasei, 5 µM
[7] = The drug is tested on Escherichia coli strain: DSM27469 for biotransformation under anaerobic condition. The drug concentrations were measured over 6 timepoints collected between 0 and 12 hours of incubation by liquid-chromatography-coupled mass spectrometry (LC–MS); design: dose 5 uM, timepoint 0, 1.5, 3, 6, 9, 12 hours; conditions: 5 µM
[8] = The drug is tested on Streptococcus sanguinis strain: DSM20567 for biotransformation under microaerobic condition. The drug concentrations were measured over 6 timepoints collected between 0 and 12 hours of incubation by liquid-chromatography-coupled mass spectrometry (LC–MS); design: dose 5 uM, timepoint 0, 1.5, 3, 6, 9, 12 hours; conditions: 5 µM
[9] = The drug is tested on the gut metagenome community of A-02 with ENA study accession number: PRJEB31790 for biotransformation under microaerobic condition. The drug concentrations were measured over 7 timepoints collected between 0 and 12 hours of incubation by liquid-chromatography-coupled mass spectrometry (LC–MS); design: dose 5 uM, timepoint 0, 0.75, 1.5, 3, 6, 9, 12 hours; conditions: 5 µM
[10] = The drug is tested on the gut metagenome community of T-04 with ENA study accession number: PRJEB31790 for biotransformation under anaerobic condition. The drug concentrations were measured over 7 timepoints collected between 0 and 12 hours of incubation by liquid-chromatography-coupled mass spectrometry (LC–MS); design: dose 5 uM, timepoint 0, 0.75, 1.5, 3, 6, 9, 12 hours; conditions: 5 µM
[11] = The drug is tested on Gemella haemolysans strain: DSM107751 for biotransformation under anaerobic condition. The drug concentrations were measured over 6 timepoints collected between 0 and 12 hours of incubation by liquid-chromatography-coupled mass spectrometry (LC–MS); design: dose 5 uM, timepoint 0, 1.5, 3, 6, 9, 12 hours; conditions: 5 µM
[12] = The drug is tested on Streptococcus salivarius strain: DSM20560 for biotransformation under anaerobic condition. The drug concentrations were measured over 6 timepoints collected between 0 and 12 hours of incubation by liquid-chromatography-coupled mass spectrometry (LC–MS); design: dose 5 uM, timepoint 0, 1.5, 3, 6, 9, 12 hours; conditions: 5 µM
[13] = The drug is tested on the gut metagenome community of T-03 with ENA study accession number: PRJEB31790 for biotransformation under microaerobic condition. The drug concentrations were measured over 7 timepoints collected between 0 and 12 hours of incubation by liquid-chromatography-coupled mass spectrometry (LC–MS); design: dose 5 uM, timepoint 0, 0.75, 1.5, 3, 6, 9, 12 hours; conditions: 5 µM
[14] = The drug is tested on the gut metagenome community of T-03 with ENA study accession number: PRJEB31790 for biotransformation under anaerobic condition. The drug concentrations were measured over 7 timepoints collected between 0 and 12 hours of incubation by liquid-chromatography-coupled mass spectrometry (LC–MS); design: dose 5 uM, timepoint 0, 0.75, 1.5, 3, 6, 9, 12 hours; conditions: 5 µM
[15] = The drug is tested on Streptococcus salivarius strain: DSM20560 for biotransformation under microaerobic condition. The drug concentrations were measured over 6 timepoints collected between 0 and 12 hours of incubation by liquid-chromatography-coupled mass spectrometry (LC–MS); design: dose 5 uM, timepoint 0, 1.5, 3, 6, 9, 12 hours; conditions: 5 µM
[16] = The drug is tested on Lactobacillus reuteri strain: DSM20016 for biotransformation under anaerobic condition. The drug concentrations were measured over 6 timepoints collected between 0 and 12 hours of incubation by liquid-chromatography-coupled mass spectrometry (LC–MS); design: dose 5 uM, timepoint 0, 1.5, 3, 6, 9, 12 hours; conditions: limosilactobacillus reuteri, 5 µM
[17] = The drug is tested on Bifidobacterium longum strain: DSM20088 for biotransformation under microaerobic condition. The drug concentrations were measured over 6 timepoints collected between 0 and 12 hours of incubation by liquid-chromatography-coupled mass spectrometry (LC–MS); design: dose 5 uM, timepoint 0, 1.5, 3, 6, 9, 12 hours; conditions: 5 µM
[18] = The drug is tested on Capnocytophaga ochracea strain: DSM7271 for biotransformation under anaerobic condition. The drug concentrations were measured over 6 timepoints collected between 0 and 12 hours of incubation by liquid-chromatography-coupled mass spectrometry (LC–MS); design: dose 5 uM, timepoint 0, 1.5, 3, 6, 9, 12 hours; conditions: 5 µM
[19] = The drug is tested on the gut metagenome community of T-04 with ENA study accession number: PRJEB31790 for biotransformation under microaerobic condition. The drug concentrations were measured over 7 timepoints collected between 0 and 12 hours of incubation by liquid-chromatography-coupled mass spectrometry (LC–MS); design: dose 5 uM, timepoint 0, 0.75, 1.5, 3, 6, 9, 12 hours; conditions: 5 µM
[20] = The drug is tested on the gut metagenome community of A-06 with ENA study accession number: PRJEB31790 for biotransformation under anaerobic condition. The drug concentrations were measured over 7 timepoints collected between 0 and 12 hours of incubation by liquid-chromatography-coupled mass spectrometry (LC–MS); design: dose 5 uM, timepoint 0, 0.75, 1.5, 3, 6, 9, 12 hours; conditions: 5 µM
[21] = The drug is tested on the gut metagenome community of P-02 with ENA study accession number: PRJEB31790 for biotransformation under microaerobic condition. The drug concentrations were measured over 7 timepoints collected between 0 and 12 hours of incubation by liquid-chromatography-coupled mass spectrometry (LC–MS); design: dose 5 uM, timepoint 0, 0.75, 1.5, 3, 6, 9, 12 hours; conditions: 5 µM
[22] = The drug is tested on the gut metagenome community of T-02 with ENA study accession number: PRJEB31790 for biotransformation under microaerobic condition. The drug concentrations were measured over 7 timepoints collected between 0 and 12 hours of incubation by liquid-chromatography-coupled mass spectrometry (LC–MS); design: dose 5 uM, timepoint 0, 0.75, 1.5, 3, 6, 9, 12 hours; conditions: 5 µM
[23] = The drug is tested on Lactobacillus reuteri strain: DSM20016 for biotransformation under microaerobic condition. The drug concentrations were measured over 6 timepoints collected between 0 and 12 hours of incubation by liquid-chromatography-coupled mass spectrometry (LC–MS); design: dose 5 uM, timepoint 0, 1.5, 3, 6, 9, 12 hours; conditions: limosilactobacillus reuteri, 5 µM
[24] = The drug is tested on the gut metagenome community of T-01 with ENA study accession number: PRJEB31790 for biotransformation under microaerobic condition. The drug concentrations were measured over 7 timepoints collected between 0 and 12 hours of incubation by liquid-chromatography-coupled mass spectrometry (LC–MS); design: dose 5 uM, timepoint 0, 0.75, 1.5, 3, 6, 9, 12 hours; conditions: 5 µM
[25] = The drug is tested on the gut metagenome community of P-04 with ENA study accession number: PRJEB31790 for biotransformation under microaerobic condition. The drug concentrations were measured over 7 timepoints collected between 0 and 12 hours of incubation by liquid-chromatography-coupled mass spectrometry (LC–MS); design: dose 5 uM, timepoint 0, 0.75, 1.5, 3, 6, 9, 12 hours; conditions: 5 µM

Compound	Bacterial Biotransformation [1]	Bacterial Biotransformation [2]	Bacterial Biotransformation [3]	Bacterial Biotransformation [4]	Bacterial Biotransformation [5]	Bacterial Biotransformation [6]	Bacterial Biotransformation [7]	Bacterial Biotransformation [8]	Bacterial Biotransformation [9]	Bacterial Biotransformation [10]	Bacterial Biotransformation [11]	Bacterial Biotransformation [12]	Bacterial Biotransformation [13]	Bacterial Biotransformation [14]	Bacterial Biotransformation [15]	Bacterial Biotransformation [16]	Bacterial Biotransformation [17]	Bacterial Biotransformation [18]	Bacterial Biotransformation [19]	Bacterial Biotransformation [20]	also measured
C[C@]12CCC(=O)C=C1CC[C@@H]1[C@@H]2C(=O)C[C@@]2(C)[C@H]1CC[C@]2(O)C(=O)CO [CORTISONE]	Compound NOT metabolized	Compound metabolized	Compound metabolized	Compound NOT metabolized	Compound NOT metabolized	Compound NOT metabolized	Compound NOT metabolized	Compound NOT metabolized	Compound metabolized	Compound NOT metabolized	Compound NOT metabolized	Compound NOT metabolized	Compound NOT metabolized	Compound NOT metabolized	Compound NOT metabolized	Compound NOT metabolized	Compound NOT metabolized	Compound NOT metabolized	Compound NOT metabolized	Compound metabolized	Bacterial Biotransformation [21]: Compound metabolized; Bacterial Biotransformation [22]: Compound metabolized; Bacterial Biotransformation [23]: Compound NOT metabolized; Bacterial Biotransformation [24]: Compound metabolized; Bacterial Biotransformation [25]: Compound metabolized
C[C@@H]1C[C@H]2[C@@H]3CCC4=CC(=O)C=C[C@]4(C)[C@@]3(F)[C@@H](O)C[C@]2(C)[C@@]1(O)C(=O)CO [DEXAMETHASONE]	Compound NOT metabolized	Compound metabolized	Compound NOT metabolized	Compound NOT metabolized	Compound NOT metabolized	Compound NOT metabolized	Compound NOT metabolized	Compound NOT metabolized	Compound metabolized	Compound NOT metabolized	Compound NOT metabolized	Compound NOT metabolized	Compound NOT metabolized	Compound NOT metabolized	Compound NOT metabolized	Compound NOT metabolized	Compound NOT metabolized	Compound NOT metabolized	Compound NOT metabolized	Compound metabolized	Bacterial Biotransformation [21]: Compound NOT metabolized; Bacterial Biotransformation [22]: Compound metabolized; Bacterial Biotransformation [23]: Compound NOT metabolized; Bacterial Biotransformation [24]: Compound metabolized; Bacterial Biotransformation [25]: Compound NOT metabolized
COc1ccc([C@@H]2Sc3ccccc3N(CCN(C)C)C(=O)[C@@H]2OC(C)=O)cc1 [DILTIAZEM]	Compound NOT metabolized	Compound NOT metabolized	Compound metabolized	Compound metabolized	Compound NOT metabolized	Compound NOT metabolized	Compound NOT metabolized	Compound NOT metabolized	Compound metabolized	Compound NOT metabolized	Compound NOT metabolized	Compound NOT metabolized	Compound NOT metabolized	Compound NOT metabolized	Compound metabolized	Compound NOT metabolized	Compound NOT metabolized	Compound NOT metabolized	Compound NOT metabolized	Compound metabolized	Bacterial Biotransformation [21]: Compound metabolized; Bacterial Biotransformation [22]: Compound metabolized; Bacterial Biotransformation [23]: Compound NOT metabolized; Bacterial Biotransformation [24]: Compound metabolized; Bacterial Biotransformation [25]: Compound NOT metabolized
